# From EP0055702B1, “Antithrombotic treatment” (priority 1980, dated 1982)
# Where “and” joins values, the source holds several entries; their conditions need not be identical. Equal entries are not always repeated. Where two headings read alike, the source gives them in different places.
# Tests used:
# [1] = tested on: platelet aggregation induced by adenosine diphosphate (ADP); settings: rabbit blood, Kikugawa, cited from earlier work
# [2] = tested on: human platelet-rich plasma; experiment: Platelet aggregometer, technique of Born, human platelet-rich plasma; format: cell-based; settings: 1 millimole (mM), ADP, collagen, epinephrine and arachidonic acid
# Description: In order to evaluate an antithrombotic effect, it is preferable to withdraw samples of blood from a patient undergoing treatment and measure platelet aggregation. One method is described by Born in Nature 194, pp. 927-929 (1962) and may be used for this purpose, if desired.
# That sodium bisulphite is a platelet antiagregatory agent is shown by using a platelet aggregometer based on the technique of Born (above cited).
# F X = target: T1, F X (Homo sapiens, UniProt P00742); experiment: Factor X assay, Example 4; format: biochemical; settings: for F X: Control 78
# T1 construct: from tissue; host or cells: human plasma
# T1 sequence (P00742 41-488): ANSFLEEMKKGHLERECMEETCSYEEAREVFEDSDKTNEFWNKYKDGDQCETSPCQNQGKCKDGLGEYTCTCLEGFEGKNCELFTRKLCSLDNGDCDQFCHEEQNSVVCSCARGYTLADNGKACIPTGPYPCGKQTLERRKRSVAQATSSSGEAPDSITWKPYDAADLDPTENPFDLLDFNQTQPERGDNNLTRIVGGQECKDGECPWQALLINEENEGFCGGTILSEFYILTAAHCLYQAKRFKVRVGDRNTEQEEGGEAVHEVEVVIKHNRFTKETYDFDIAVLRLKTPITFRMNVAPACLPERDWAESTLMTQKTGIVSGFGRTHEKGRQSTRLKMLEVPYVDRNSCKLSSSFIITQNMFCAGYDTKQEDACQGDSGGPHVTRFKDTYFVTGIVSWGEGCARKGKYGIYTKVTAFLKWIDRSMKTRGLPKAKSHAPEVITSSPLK
# Description: (§1) The evaluation procedure used is that described in "Human Blood Coagulation, Haemostasis and Thrombosis", edited by Rosemary Biggs, published by Blackwell Scientific Publications, Oxford, England (2nd Edition), pages 670-705, 1976. […]
# human plasma [3] = experiment: Prothrombin Time, Example 4; format: biochemical
# Description: as §1
# F VII = target: T2, F VII (Homo sapiens, UniProt P08709); experiment: Factor VII assay, Example 4; format: biochemical; settings: for F VII: Control 73
# T2 construct: from tissue; host or cells: human plasma
# T2 sequence (P08709 61-466): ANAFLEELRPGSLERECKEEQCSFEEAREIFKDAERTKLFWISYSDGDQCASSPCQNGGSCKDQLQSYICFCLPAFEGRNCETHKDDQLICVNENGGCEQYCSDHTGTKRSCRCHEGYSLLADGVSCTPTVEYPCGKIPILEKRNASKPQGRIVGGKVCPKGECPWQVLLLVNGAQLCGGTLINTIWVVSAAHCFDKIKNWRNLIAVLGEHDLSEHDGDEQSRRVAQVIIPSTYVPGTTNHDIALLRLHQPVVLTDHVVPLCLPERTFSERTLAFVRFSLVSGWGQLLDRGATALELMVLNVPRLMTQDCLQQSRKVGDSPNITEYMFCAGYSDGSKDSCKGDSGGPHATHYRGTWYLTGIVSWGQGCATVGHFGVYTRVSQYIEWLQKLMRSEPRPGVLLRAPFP
# Description: as §1
# [4] = PTT of coded and various agents, Example 6; format: biochemical; settings: Table V, coded agents 0.5 mg/ml; Control 43.38
# Description: A variety of agents were coded and evaluated under a code designation. Among these compounds, thiouracil, mercaptosuccinic acid, thiosemicarbazide, phenothiazine and sodium thiosulphate were included, so as to compare sodium bisulphite with certain compounds mentioned in USP 4,148,855.
# After determination of PT and PTT values, the coded compounds were decoded.
# The results are shown in Table V, where mean values of 5 replications in each case are reported. […] This procedure was repeated with some additional compounds on two different days using a different control on each day.
# human plasma [5] = experiment: Partial Thromboplastin Time, Example 4; format: biochemical
# Description: as §1
# Prothrombin = target: T3, Prothrombin (Homo sapiens, UniProt P00734); experiment: Prothrombin (Factor II) assay, Example 4; format: biochemical; settings: for Prothrombin: Control 87
# T3 construct: from tissue; host or cells: human plasma
# Description: as §1
# [6] = tested on: human, rabbit and rat plasma; experiment: PT (prothrombin time) in plasma in vitro, Example 3; format: biochemical
# Description: Sodium, potassium and ammonium bisulphites are found to prolong PT and PTT in a dose-related fashion.
# The evaluation procedure used is that described in "Human Blood Coagulation, Haemostasis and Thrombosis", edited by Rosemary Biggs, published by Blackwell Scientific Publications, Oxford, England (2nd Edition), pages 670-705, 1976.
# rats = experiment: Rats fed bait containing 0.5% sodium bisulphite; format: in vivo
# Description: Five rats, each in a separate cage, were given a bait containing 0.5 percent by weight of sodium bisulphite. The bait consisted of cracked grains (wheat, corn, millet and corn meal). The amounts of bait eaten were summarized for an eleven day period.
# [7] = Sodium bisulphite 0.01 mg/ml, solution D
# [8] = Sodium bisulphite 0.05 mg/ml, solution D
# [9] = Sodium bisulphite 0.1 mg/ml, solution D
# [10] = Sodium bisulphite 0.5 mg/ml, solution D
# [11] = Sodium bisulphite 1.0 mg/ml, solution D
# [12] = Sodium bisulphite 5.0 mg/ml, solution D
# [13] = chemical grade sodium bisulphite 0.01 mg/ml
# [14] = chemical grade sodium bisulphite 0.05 mg/ml
# [15] = chemical grade sodium bisulphite 0.1 mg/ml
# [16] = chemical grade sodium bisulphite 0.5 mg/ml
# [17] = chemical grade sodium bisulphite 1.0 mg/ml
# [18] = chemical grade sodium bisulphite 5.0 mg/ml
# [19] = Test sequence A, active agent 0.5/ml, control
substance,measurement,setting,value
Sodium bisulphite,inhibition of platelet aggregation induced by ADP,[1]; 1 mM,9%
same,inhibition of platelet aggregation induced by ADP,[1]; 5 mM,66%
same,inhibition of platelet aggregation induced by ADP,[1]; 10 mM,69%
same,platelet aggregation,[2],abolishes platelet aggregation
same,effect on Factor X,"F X; 0.5 mg per ml, human plasma",significant inhibitory effect
same,F X,F X; [7],73%
same,F X,F X; [8],68%
same,F X,F X; [9],66%
same,F X,F X; [10],31%
same,F X,F X; [11],11%
same,F X,F X; [12],3%
same,F X,F X; [13],80
same,F X,F X; [14],69
same,F X,F X; [15],66
same,F X,F X; [16],22
same,F X,F X; [17],6
same,F X,F X; [18],4
same,PT,"human plasma [3]; Sodium bisulphite 0.01 mg/ml, solution D, Control 34.67",33.37 s
same,PT,"human plasma [3]; Sodium bisulphite 0.05 mg/ml, solution D, Control 34.67",34.00 s
same,PT,"human plasma [3]; Sodium bisulphite 0.1 mg/ml, solution D, Control 34.67",34.85 s
same,PT,"human plasma [3]; Sodium bisulphite 0.5 mg/ml, solution D, Control 34.67",42.73 s
same,PT,"human plasma [3]; Sodium bisulphite 1.0 mg/ml, solution D, Control 34.67",85.33 s
same,PT,"human plasma [3]; Sodium bisulphite 5.0 mg/ml, solution D, Control 34.67",>150 s
same,PT,"human plasma [3]; chemical grade sodium bisulphite 0.01 mg/ml, Control 12.20",12.30 s
same,PT,"human plasma [3]; chemical grade sodium bisulphite 0.05 mg/ml, Control 12.20",12.47 s
same,PT,"human plasma [3]; chemical grade sodium bisulphite 0.1 mg/ml, Control 12.20",12.90 s
same,PT,"human plasma [3]; chemical grade sodium bisulphite 0.5 mg/ml, Control 12.20",16.10 s
same,PT,"human plasma [3]; chemical grade sodium bisulphite 1.0 mg/ml, Control 12.20",22.38 s
same,PT,"human plasma [3]; chemical grade sodium bisulphite 5.0 mg/ml, Control 12.20",>150 s
same,effect on Factor VII,"F VII; 0.5 mg per ml, human plasma",significant inhibitory effect
same,F VII,F VII; [7],67%
same,F VII,F VII; [8],57%
same,F VII,F VII; [9],51%
same,F VII,F VII; [10],23%
same,F VII,F VII; [11],8%
same,F VII,F VII; [12],1%
same,F VII,F VII; [13],62
same,F VII,F VII; [14],63
same,F VII,F VII; [15],53
same,F VII,F VII; [16],17
same,F VII,F VII; [17],7
same,F VII,F VII; [18],2
same,PTT,[4],114.80 s
same,PTT,"human plasma [5]; Sodium bisulphite 0.01 mg/ml, solution D, Control 12.20",12.33 s
same,PTT,"human plasma [5]; Sodium bisulphite 0.05 mg/ml, solution D, Control 12.20",12.43 s
same,PTT,"human plasma [5]; Sodium bisulphite 0.1 mg/ml, solution D, Control 12.20",12.85 s
same,PTT,"human plasma [5]; Sodium bisulphite 0.5 mg/ml, solution D, Control 12.20",15.43 s
same,PTT,"human plasma [5]; Sodium bisulphite 1.0 mg/ml, solution D, Control 12.20",22.63 s
same,PTT,"human plasma [5]; Sodium bisulphite 5.0 mg/ml, solution D, Control 12.20",>150 s
same,PTT,"human plasma [5]; chemical grade sodium bisulphite 0.01 mg/ml, Control 34.67",32.80 s
same,PTT,"human plasma [5]; chemical grade sodium bisulphite 0.05 mg/ml, Control 34.67",33.77 s
same,PTT,"human plasma [5]; chemical grade sodium bisulphite 0.1 mg/ml, Control 34.67",34.40 s
same,PTT,"human plasma [5]; chemical grade sodium bisulphite 0.5 mg/ml, Control 34.67",44.87 s
same,PTT,"human plasma [5]; chemical grade sodium bisulphite 1.0 mg/ml, Control 34.67",78.46 s
same,PTT,"human plasma [5]; chemical grade sodium bisulphite 5.0 mg/ml, Control 34.67",>150 s
same,Prothrombin,Prothrombin; [7],79%
same,Prothrombin,Prothrombin; [8],80%
same,Prothrombin,Prothrombin; [9],72%
same,Prothrombin,Prothrombin; [10],40%
same,Prothrombin,Prothrombin; [11],26%
same,Prothrombin,Prothrombin; [12],5%
same,Prothrombin,Prothrombin; [13],88%
same,Prothrombin,Prothrombin; [14],82%
same,Prothrombin,Prothrombin; [15],75%
same,Prothrombin,Prothrombin; [16],34%
same,Prothrombin,Prothrombin; [17],25%
same,Prothrombin,Prothrombin; [18],8%
same,effect on Factor II,Prothrombin; human plasma,mildly affected
same,prolongation of PT,"[6]; 0.5 mg/ml, human, rabbit and rat plasma in vitro, dose-related",significantly prolong
same,PT (seconds) Exp. 1 A,[6]; [19],22.1 s
same,PT (seconds) Exp.2 A,[6]; [19],23.2 s
same,PT (seconds) Exp. 1 A,"[6]; Test sequence B, active agent 0.5/ml, control",25.5 s
same,death of rat,"rats; 2 days, Rat 1 and Rat 4, bait with 0.5% sodium bisulphite",Died
same,First day blood factor PT,"rats; Rat 5, bait with 0.5% sodium bisulphite",27
same,"First day blood factor PT, increase","rats; Rats 1, 2, 3, bait with 0.5% sodium bisulphite",26% increase and 24% increase and 28% increase
same,"change in PTT, first day",rats; three rats with increased PT,no apparent change
